Assay results from PubChem BioAssay AID1919002 (Molecular Pharmacology Branch, DTP, NCI, 2023).
Values joined by “and” are separate entries in the source; they are usually repeats but may differ in a detail not shown here. Identical values can stand only once.

Test system: 743489-274-T-PDC complex spheroid growth
Test: Anticancer human tumor 743489-274-T-PDC patient-derived renal cell carcinoma cell line growth inhibition [AhR]
Conditions: for viability, T/C: stronger effect = lower value
How it was run: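 Agents were dosed in half-log steps down from roughly clinical Cmax, or from 10 microM where Cmax was unknown, alone and with AhR antagonists. Read-out: percent test/control growth of tumor spheroids containing HUVEC and MSC stromal cells.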

[1] = curve of first compound, second compound 0.1 µM
[2] = curve of first compound, second compound 0.316 µM
[3] = curve of first compound, second compound 1 µM
[4] = curve of first compound, second compound 3.16 µM
[5] = curve of first compound, second compound 10 µM
[6] = second compound 0.1 µM, first compound 0.0316 µM
[7] = second compound 0.1 µM, first compound 0.1 µM
[8] = second compound 0.1 µM, first compound 0.316 µM
[9] = second compound 0.1 µM, first compound 1 µM
[10] = second compound 0.1 µM, first compound 3.16 µM
[11] = second compound 0.1 µM, first compound 10 µM
[12] = second compound 0.316 µM, first compound 0.0316 µM
[13] = second compound 0.316 µM, first compound 0.1 µM
[14] = second compound 0.316 µM, first compound 0.316 µM
[15] = second compound 0.316 µM, first compound 1 µM
[16] = second compound 0.316 µM, first compound 3.16 µM
[17] = second compound 0.316 µM, first compound 10 µM
[18] = second compound 1 µM, first compound 0.0316 µM
[19] = second compound 1 µM, first compound 0.1 µM
[20] = second compound 1 µM, first compound 0.316 µM
[21] = second compound 1 µM, first compound 1 µM
[22] = second compound 1 µM, first compound 3.16 µM
[23] = second compound 1 µM, first compound 10 µM
[24] = second compound 3.16 µM, first compound 0.0316 µM
[25] = second compound 3.16 µM, first compound 0.1 µM
[26] = second compound 3.16 µM, first compound 0.316 µM
[27] = second compound 3.16 µM, first compound 1 µM
[28] = second compound 3.16 µM, first compound 3.16 µM
[29] = second compound 3.16 µM, first compound 10 µM
[30] = second compound 10 µM, first compound 0.0316 µM
[31] = second compound 10 µM, first compound 0.1 µM
[32] = second compound 10 µM, first compound 0.316 µM
[33] = second compound 10 µM, first compound 1 µM
[34] = second compound 10 µM, first compound 3.16 µM
[35] = second compound 10 µM, first compound 10 µM
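Note: spheroids exposed to agents for 7 days before readout.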
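Throughout, for viability, T/C: 100% = DMSO vehicle control wells.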

SMILES | IC50 [1] [µM] | IC50 [2] [µM] | IC50 [3] [µM] | IC50 [4] [µM] | IC50 [5] [µM] | viability, T/C [6] [%] | viability, T/C [7] [%] | viability, T/C [8] [%] | viability, T/C [9] [%] | viability, T/C [10] [%] | viability, T/C [11] [%] | viability, T/C [12] [%] | viability, T/C [13] [%] | viability, T/C [14] [%] | viability, T/C [18] [%] | viability, T/C [19] [%] | viability, T/C [24] [%] | viability, T/C [25] [%] | viability, T/C [30] [%] | viability, T/C [31] [%] | further results
Nc1ccn(C2OC(CO)C(O)C2(F)F)c(=O)n1 (configuration not stated) + CC(CO)NC(=O)c1cc(-c2ccc(Cl)cc2)nn(-c2cnn(C)c2)c1=O | > 10 | > 10 | > 10 | > 10 | > 10 | 81.9 | 79.7 | 71.8 | 62.2 | 59.9 | 67.7 | 80.7 | 73 | 70.8 | 84 | 68.5 | 81.1 | 75.9 | 90.2 | 82.5 | viability, T/C [15]: 68.3%; viability, T/C [16]: 62.6%; viability, T/C [17]: 69.9%; viability, T/C [20]: 68.3%; viability, T/C [21]: 59.5%; viability, T/C [22]: 70%; viability, T/C [23]: 71.5%; viability, T/C [26]: 64.4%; viability, T/C [27]: 64.7%; viability, T/C [28]: 76.6%; viability, T/C [29]: 63.6%; viability, T/C [32]: 65.3%; viability, T/C [33]: 65.1%; viability, T/C [34]: 77.2%; viability, T/C [35]: 74.3%
CC[C@@]1(O)C(=O)OCc2c1cc1n(c2=O)Cc2cc3c(CN(C)C)c(O)ccc3nc2-1 | – | – | – | – | – | – | – | – | – | – | – | – | – | – | – | – | – | – | – | – | viability, T/C (compound 0.000316 µM): 109% and 97.4% and 106%; viability, T/C (compound 0.001 µM): 110% and 94.7% and 90.2%; viability, T/C (compound 0.00316 µM): 107% and 97.5% and 93.5%; viability, T/C (compound 0.01 µM): 100% and 103% and 93.5%; viability, T/C (compound 0.0316 µM): 95% and 105% and 97.2%; viability, T/C (compound 0.1 µM): 96.3% and 83.8% and 91.8%; IC50 (curve of compound): > 0.1 µM
CC[C@@]1(O)C(=O)OCc2c1cc1n(c2=O)Cc2cc3c(CN(C)C)c(O)ccc3nc2-1 + Cc1cncc(-c2nc(NCCc3c[nH]c4ccccc34)c3ncn(C(C)C)c3n2)c1 | > 0.1 | > 0.1 | > 0.1 | > 0.1 | > 0.1 | 93.1 | 97.4 | – | – | – | – | 92.8 | 90.4 | – | 86.5 | 84.3 | 107 | 84.7 | 123 | 114 | viability, T/C (second compound 0.1 µM, first compound 0.000316 µM): 100%; viability, T/C (second compound 0.1 µM, first compound 0.001 µM): 108%; viability, T/C (second compound 0.1 µM, first compound 0.00316 µM): 98.7%; viability, T/C (second compound 0.1 µM, first compound 0.01 µM): 94.5%; viability, T/C (second compound 0.316 µM, first compound 0.000316 µM): 105%; viability, T/C (second compound 0.316 µM, first compound 0.001 µM): 110%; viability, T/C (second compound 0.316 µM, first compound 0.00316 µM): 105%; viability, T/C (second compound 0.316 µM, first compound 0.01 µM): 98.6%; viability, T/C (second compound 1 µM, first compound 0.000316 µM): 101%; viability, T/C (second compound 1 µM, first compound 0.001 µM): 105%; viability, T/C (second compound 1 µM, first compound 0.00316 µM): 101%; viability, T/C (second compound 1 µM, first compound 0.01 µM): 89.8%; viability, T/C (second compound 3.16 µM, first compound 0.000316 µM): 113%; viability, T/C (second compound 3.16 µM, first compound 0.001 µM): 109%; viability, T/C (second compound 3.16 µM, first compound 0.00316 µM): 129%; viability, T/C (second compound 3.16 µM, first compound 0.01 µM): 101%; viability, T/C (second compound 10 µM, first compound 0.000316 µM): 136%; viability, T/C (second compound 10 µM, first compound 0.001 µM): 123%; viability, T/C (second compound 10 µM, first compound 0.00316 µM): 133%; viability, T/C (second compound 10 µM, first compound 0.01 µM): 123%
CC1COCCN1c1cc(C2(S(C)(=N)=O)CC2)nc(-c2ccnc3[nH]ccc23)n1 (configuration not stated) + Cc1ccccc1N=Nc1ccc(NC(=O)c2ccnn2C)c(C)c1 | > 10 | > 10 | > 10 | > 10 | > 10 | 92.1 | 101 | 92.2 | 97.3 | 98.8 | 102 | 99 | 87.6 | 109 | 104 | 99.4 | 86.8 | 85.7 | 85.4 | 89.1 | viability, T/C [15]: 88.4%; viability, T/C [16]: 86.8%; viability, T/C [17]: 99.1%; viability, T/C [20]: 95.8%; viability, T/C [21]: 88%; viability, T/C [22]: 88.4%; viability, T/C [23]: 81.5%; viability, T/C [26]: 95.5%; viability, T/C [27]: 78.6%; viability, T/C [28]: 83.2%; viability, T/C [29]: 80.4%; viability, T/C [32]: 87.4%; viability, T/C [33]: 84.8%; viability, T/C [34]: 78.4%; viability, T/C [35]: 75%
COc1cc(Nc2ncc3c(n2)-c2ccc(Cl)cc2C(c2c(F)cccc2OC)=NC3)ccc1C(=O)O + Cc1cncc(-c2nc(NCCc3c[nH]c4ccccc34)c3ncn(C(C)C)c3n2)c1 | > 10 | > 10 | > 10 | > 10 | > 10 | 94.2 | 103 | 84.6 | 99.8 | 93.7 | 91.8 | 97.7 | 85 | 94 | 99 | 95.2 | 107 | 98 | 119 | 126 | viability, T/C [15]: 85.1%; viability, T/C [16]: 85%; viability, T/C [17]: 78.9%; viability, T/C [20]: 95.9%; viability, T/C [21]: 86%; viability, T/C [22]: 95.3%; viability, T/C [23]: 82.4%; viability, T/C [26]: 96.1%; viability, T/C [27]: 107%; viability, T/C [28]: 90.1%; viability, T/C [29]: 98.9%; viability, T/C [32]: 101%; viability, T/C [33]: 76.8%; viability, T/C [34]: 79.4%; viability, T/C [35]: 85.8%
